Starred links: 1 amine or outer side, 2 acyl side, 3 side chain; linkers in the order of their positions; H or OH if unused. Positions of bridges follow the written chain, without caps; N, C: chain ends. Residues, ends and D or L forms follow the SMILES beside them. X1 = O=C(CCC[*:2])[*:1] Bounds are passed on as bounds.

Series [1] is described as follows: Gravimetric vapour sorption (GVS) of crystals. The series is classed as physicochemical. The following applies: 25° C. Here is the method: Gravimetric vapour sorption (GVS) was performed on an SMS DVS-1. 1.4 mg of crystals and powder were added into an Al pan and exposed to stepwise relative humidity (RH) changes during two consecutive cycles: 20-30-40-50-60-70-80-70-60-50-40-30-20-10-0-10-20-30-40-50-60-70-80-90-80-70-60-50-40-30-20-10-0% RH in an open loop mode. The temperature was maintained at 25° C. and pure nitrogen flow rate of 200 ml/min was used. The dm/dt criteria applied was 0.001 weight-%/min during a 5 minute window, with a maximum time of 150 minutes for all steps, with the exception of steps at 0% RH that were set to 6 hours.

The subject of series [2] is Prader-Willi Syndrome patients. The following applies: after 15 days, vs placebo treated patients; cited from earlier work.
The format of series [3] is physicochemical. Here is the method: The next day the solids were analysed by HPLC for purity and assay (FIG. 3b), TG/DTA for ease of mass loss/thermal events (FIG. 4b) as well as polarised light microscopy (PLM) and XRPD for morphology and crystalline content. […] These mass losses correspond to weakly surface bound acetonitrile and water, and are not indicative of any solvation of the crystal form itself.

For the compound `CC[C@H](C)[C@@H]1NC(=O)[C@H](Cc2ccc(OC)cc2)NC(=O)CCCSC[C@@H](C(=O)N2CCC[C@H]2C(=O)N[C@@H](CC(C)C)C(=O)NCC(N)=O)NC(=O)[C@H](CC(N)=O)NC(=O)[C@H](CCC(N)=O)NC1=O` [Form III, carbetocin] (Y(Me)IQNCPLG-NH2; linker N-5 via X1), in series [1] (crystals of Example 5, FIG. 8b), the “GVS isotherm plateau (monohydrate plus some loosely bound surface water)” value is on record as “around 2 % (w/w)” and the “GVS second plateau, additional (pentahydrate with some loosely bound surface water)” value is recorded as “approximately 8 % (w/w)”. Further, in series [1] (sorption), the “relative humidity at which the pentahydrate exists” value was not below 60 % RH.
Take `CC[C@H](C)[C@@H]1NC(=O)[C@H](Cc2ccc(OC)cc2)NC(=O)CCCSC[C@@H](C(=O)N2CCC[C@H]2C(=O)N[C@@H](CC(C)C)C(=O)NCC(N)=O)NC(=O)[C@H](CC(N)=O)NC(=O)[C@H](CCC(N)=O)NC1=O` [carbetocin, 1-butanoic acid-2-(O-methyl-L-tyrosine)-1-carbaoxytocin] (Y(Me)IQNCPLG-NH2; linker N-5 via X1): the “improvement over placebo in measurements of hyperphagia, obsessive compulsive disorder, food seeking behaviour and clinical global impression” value in series [2] is given as “statistically significant improvement over placebo treated patients”.
With `CC[C@H](C)[C@@H]1NC(=O)[C@H](Cc2ccc(OC)cc2)NC(=O)CCCSC[C@@H](C(=O)N2CCC[C@H]2C(=O)N[C@@H](CC(C)C)C(=O)NCC(N)=O)NC(=O)[C@H](CC(N)=O)NC(=O)[C@H](CCC(N)=O)NC1=O` [Form II, carbetocin] (Y(Me)IQNCPLG-NH2; linker N-5 via X1), the “total mass loss (TG/DTA)” value in series [3] (up to 110° C., crystals of Example 4, FIG. 4b) was “approximately 0.8%”. Besides, the “first mass loss (TG/DTA)” value in series [3] (up to approximately 60° C., weakly surface bound acetonitrile and water) is on record as “approximately 0.5%”. Further, in series [3] (up to approximately 110° C., weakly surface bound acetonitrile and water), the “second mass loss (TG/DTA)” value is reported as “approximately 0.3%”.
